Consider 3 compounds from patent EP1180991B1, “GAMBOGIC ACID DERIVATIVES AS ACTIVATORS OF CASPASES AND INDUCERS OF APOPTOSIS” (Cytovia, Inc., priority 1999, dated 2000).

Each structure is given as a SMILES string. Read-outs that look alike come from different tables or passages of the source.

The subject of data set [1] is several cancer cell lines. As to conditions: cited from earlier work.
For data set [2], the system named is HL-60. The data set can be described thus: Caspase cascade activation assay (Example 90). In kind it is cell-based, human. On the procedure:
(§1) Human breast cancer cell lines T-47D and ZR-75-1, human prostate cancer cell line PC-3, human leukemia cancer cell line HL-60 and human non-transformed fibroblast cell line MRC-5 cells were grown according to media component mixtures designated by The American Type Culture Collection + 10% FCS (Life Technologies, Inc.), in a 5% CO2 -95% humidity incubator at 37° C. T-47D, ZR-75-1 and PC-3 cells were maintained at a cell density between 30 and 80% confluency and for HL-60 at a cell density of 0.1 to 0.6 x 10^6 cells/ml. Cells were harvested at 600xg and resuspended at 0.65 x 10^6 cells/ml into appropriate media + 10% FCS. […] The samples were mixed by agitation and incubated at room temperature.
(§2) The EC50 (nM) was determined by a sigmoidal dose-response calculation (Prism 2.0, GraphPad Software Inc.). Caspase Activity and Potency

Data set [3] concerns PC-3. The data set can be described thus: Caspase cascade activation assay (Example 90). It counts as cell-based, human. As for the experimental part:
as §1, §2

Data set [4] deals with ZR-75-1. The data set can be described thus: Caspase cascade activation assay (Example 90). In kind it is cell-based, human. On the procedure: as §1, §2
The test system of data set [5] is T-47D. As to the kind of experiment: Caspase cascade activation assay (Example 90). It counts as cell-based, human. As for the experimental part: as §1, §2
The test system of data set [6] is MRC-5. As to the kind of experiment: Caspase cascade activation assay (Example 90). It counts as cell-based, human. As for the experimental part:
as §1, §2

For data set [7], the system named is DU-145. The data set can be described thus: Inhibition of cell proliferation (GI50) and cell death (LC50), CellTiter 96 (Example 91). In kind it is cell-based. Particulars: Homo sapiens, DU-145, 48 h. As for the experimental part:
(§3) T-47D, ZR-75-1, PC-3, human prostate cancer cell line DU-145, human non-small cell lung cancer cell line A-549, human small cell lung cancer cell line SHP-77, HL-60 and MRC-5 cells were grown and harvested as in Example 90. […] The samples were mixed by agitation and incubated at 37° C for 2-4 h in a 5% CO2-95% humidity incubator. […] This determines the possible background absorbance of the test compounds. No absorbance for gambogic acid or its analogs or derivatives was found at 490 nm. After the 2-4 h incubation, the samples were read for absorbance as above (ATest).
(§4) The samples were mixed by agitation and incubated at 37° C for 2-4 h in a 5% CO2-95% humidity incubator. Absorbance was read as above, (AT=0) defining absorbance for initial cell number used as baseline in GI50 determinations and (Amin) defining absorbance for media alone used as baseline in LC50 determinations.
(§5) GI50 (dose for50%inhibition of cell proliferation) 50 = 100 x [(ATest-AT = 0)/(Amax-AT = 0)] [formula] LC50 (dose for50%cell death) 50 = 100 x [(ATest-Amin)/(AT = 0-Amin)] [formula]

Data set [8] deals with SHP-77. Described as above. In kind it is cell-based. As to conditions: Homo sapiens, SHP77, 48 h. As for the experimental part: as §3, §4, §5
Data set [9] deals with HL-60. Described as above. It counts as cell-based. As to conditions: Homo sapiens, HL-60, 48 h. On the procedure:
as §3, §4, §5

Data set [10] concerns PC-3. The data set is described as above. Particulars: Homo sapiens, PC-3, 48 h. In kind it is cell-based. As for the experimental part:
as §3, §4, §5

For data set [11], the system named is A-549. Described as above. In kind it is cell-based. Particulars: Homo sapiens, A549, 48 h. On the procedure:
as §3, §4, §5

Data set [12] has as its system ZR-75-1. The data set is described as above. In kind it is cell-based. Particulars: Homo sapiens, ZR-75-1, 48 h. On the procedure: as §3, §4, §5
Data set [13] concerns T-47D. Described as above. It counts as cell-based. As to conditions: Homo sapiens, T47D, 48 h. On the procedure:
as §3, §4, §5

Data set [14] relates to MRC-5. Described as above. In kind it is cell-based, human. As for the experimental part: as §3, §4, §5

`CC(C)=CCc1c(O)cc(O)c2c1O[C@]13C(=C[C@@H]4C[C@H]1C(C)(C)O[C@@]3(CC=C(C)C)C4=O)C2=O` [forbesione, reference compound]: in data set [1], the cytotoxicity entry was “significant cytotoxicity”.
The term EC50 denotes the midpoint of the concentration-response curve. As a reminder, the GI50 is the concentration at which growth is held to half of that of the control. For the compound `COC(=O)/C(C)=C\CC12OC(C)(C)C3CC(C=C4C(=O)c5c(O)c6c(c(CC=C(C)C)c5OC431)OC(C)(CCC=C(C)C)C=C6)C2=O` (stereo not shown) [Example 4, Methyl Gambogate], the “caspase activity (Ratio)” value in data set [2] (HL-60, 24 h incubation, 0.16 to 10 µM final, net RFU ratio to control) was 7.7; in [3] (PC-3, 24 h incubation, 0.16 to 10 µM final, net RFU ratio to control), 3.9; in data set [4] (ZR-75-1, 24 h incubation, 0.16 to 10 µM final, net RFU ratio to control) it was 14.9; in [5] (T-47D, 24 h incubation, 0.16 to 10 µM final, net RFU ratio to control), 16.8; in data set [6] (MRC-5 non-transformed fibroblasts, 24 h incubation, 0.16 to 10 µM final, net RFU ratio to control) it was 27.8. The EC50 in [2] (Homo sapiens, HL-60, 24 h) was 339 nM; in data set [3] (Homo sapiens, PC-3, 24 h), 1330 nM; in data set [4] (Homo sapiens, ZR-75-1, 24 h) it was 1640 nM; in [5] (Homo sapiens, T47D, 24 h), 484 nM; in data set [6] (Homo sapiens, MRC5, 24 h), 501 nM. The GI50 was found to be 500 nM in data set [7]; 500 nM in data set [8]; 50 nM in [9]; 500 nM in [10]; 500 nM in [11]; 300 nM in [12]. Besides, the 50% growth inhibitory concentration (GI50) in [13] came to 40 nM; in [14] (Homo sapiens, MRC5, 48 h), 200 nM. Also, the CC50 in data set [7] (read-out: LC50) was determined as 500 nM; in [8] (read-out: LC50), 500 nM; in [9] (read-out: LC50), 500 nM; in data set [10] (read-out: LC50) it was 500 nM; in data set [11] (read-out: LC50), 2000 nM; in data set [12] (read-out: LC50), 500 nM. In addition, the CC50 in data set [13] (read-out: LC50) is 50 nM; in data set [14] (MRC-5 non-transformed fibroblasts, 48 h, dose for 50% cell death), 500 nM.
In the case of `CC(C)=CCc1c2c(c(O)c3c1OC14C(=CC5CC1C(C)(C)OC4(C/C=C(/C)C(=O)O)C5=O)C3=O)C=CC(C)(C)O2` (stereo not shown) [Example 19, Morellic Acid], the cytotoxicity entry in [1] (several cancer cell lines, Cao et al. 1998) is given as “significant cytotoxicity”.
